Laboratory results as given in PMC3382171 (PLoS ONE, 2012).

Columns and labels:
Assay in all cases: biochemical
Parameters in all cases: University of Dundee kinase panel, percent inhibition of phosphorylation at 1 uM RAFi, ATP at Km
Conditions in all cases: read-out: Dundee KSS %inh at 1 uM
SRPK1 = SRPK1 (Homo sapiens, UniProt Q96SB4)
Method: (§1) The METi and RAFi were screened against kinase panels (SelectScreen, Invitrogen; University of Dundee, Division of Signal Transduction Therapy, UK; Upstate Biotechnology/Millipore, Billerica, MA). In these selectivity assays the concentration of ATP was set to the Km value of ATP for each kinase tested to allow for a relative potency comparison between the various kinases. The compounds were tested at 1 µM final concentration. […] Supplementary file pone.0039653.s002.pdf: Figure S2 Kinase Selectivity Screen of RAFi. (A) Kinase selectivity screen (KSS) performed at University of Dundee (Division of Signal Transduction Therapy). Values in % inhibition of phosphorylation given 1 µM of RAFi compared to control. (B) KSS performed at Invitrogen (Selectscreen Service) compared to control. Values in % inhibition of phosphorylation given 1 µM of RAFi. (C) Cell based dose response kinase inhibition of indicated kinases by RAFi. (PDF) Click here for additional data file.

CDK2 = CDK2 (Homo sapiens, UniProt P24941)
Method: as §1

CAMKKB = molecular target: T1, CAMKKB (Homo sapiens, UniProt Q96RR4)
T1 construct: gene CAMKK2
T1 sequence (Q96RR4 whole entry): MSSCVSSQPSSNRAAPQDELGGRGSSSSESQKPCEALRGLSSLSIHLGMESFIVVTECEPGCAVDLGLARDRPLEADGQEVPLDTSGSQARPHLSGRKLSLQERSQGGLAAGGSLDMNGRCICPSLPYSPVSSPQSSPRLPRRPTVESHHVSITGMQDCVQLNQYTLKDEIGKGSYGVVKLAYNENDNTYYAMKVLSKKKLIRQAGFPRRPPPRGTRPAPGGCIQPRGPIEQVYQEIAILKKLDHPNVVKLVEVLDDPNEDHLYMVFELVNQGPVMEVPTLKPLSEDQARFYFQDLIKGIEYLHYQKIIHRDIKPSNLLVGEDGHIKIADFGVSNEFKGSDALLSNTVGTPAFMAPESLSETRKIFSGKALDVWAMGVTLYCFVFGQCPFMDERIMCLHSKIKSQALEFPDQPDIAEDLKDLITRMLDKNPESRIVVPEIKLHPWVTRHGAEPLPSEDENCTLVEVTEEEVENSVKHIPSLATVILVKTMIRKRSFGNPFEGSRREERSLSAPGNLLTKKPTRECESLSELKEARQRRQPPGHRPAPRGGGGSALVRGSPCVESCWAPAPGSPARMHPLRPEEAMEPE
Method: as §1

PRK2 = molecular target: T2, PRK2 (Homo sapiens, UniProt Q16513)
T2 construct: gene PKN2
T2 sequence (Q16513 whole entry): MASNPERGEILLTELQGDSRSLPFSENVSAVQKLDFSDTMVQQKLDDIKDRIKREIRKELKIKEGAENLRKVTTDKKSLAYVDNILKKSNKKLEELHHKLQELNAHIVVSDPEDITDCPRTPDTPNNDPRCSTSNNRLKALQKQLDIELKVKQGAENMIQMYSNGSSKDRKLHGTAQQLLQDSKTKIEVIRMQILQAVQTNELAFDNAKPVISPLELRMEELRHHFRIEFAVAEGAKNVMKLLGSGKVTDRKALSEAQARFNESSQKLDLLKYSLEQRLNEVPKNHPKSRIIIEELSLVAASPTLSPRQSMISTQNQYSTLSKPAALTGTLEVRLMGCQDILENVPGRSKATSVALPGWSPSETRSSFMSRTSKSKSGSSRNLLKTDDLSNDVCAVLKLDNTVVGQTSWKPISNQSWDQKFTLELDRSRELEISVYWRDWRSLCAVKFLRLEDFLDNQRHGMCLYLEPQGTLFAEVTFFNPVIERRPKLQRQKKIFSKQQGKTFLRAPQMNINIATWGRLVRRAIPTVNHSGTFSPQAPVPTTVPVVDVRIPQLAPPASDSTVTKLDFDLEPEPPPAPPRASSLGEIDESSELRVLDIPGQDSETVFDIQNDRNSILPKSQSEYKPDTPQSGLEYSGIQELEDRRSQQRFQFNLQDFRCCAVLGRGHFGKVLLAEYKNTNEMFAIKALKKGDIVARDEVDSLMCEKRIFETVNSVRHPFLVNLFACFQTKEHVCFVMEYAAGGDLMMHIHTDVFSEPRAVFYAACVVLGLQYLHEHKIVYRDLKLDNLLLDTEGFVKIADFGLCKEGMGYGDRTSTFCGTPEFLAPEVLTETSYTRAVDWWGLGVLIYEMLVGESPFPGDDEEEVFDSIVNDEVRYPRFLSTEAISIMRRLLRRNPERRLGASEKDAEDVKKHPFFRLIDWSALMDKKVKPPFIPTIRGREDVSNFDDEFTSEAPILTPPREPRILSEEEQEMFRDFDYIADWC
Method: as §1

p38g = molecular target: T3, p38g (Homo sapiens, UniProt P53778)
T3 construct: gene MAPK12
T3 sequence (P53778 whole entry): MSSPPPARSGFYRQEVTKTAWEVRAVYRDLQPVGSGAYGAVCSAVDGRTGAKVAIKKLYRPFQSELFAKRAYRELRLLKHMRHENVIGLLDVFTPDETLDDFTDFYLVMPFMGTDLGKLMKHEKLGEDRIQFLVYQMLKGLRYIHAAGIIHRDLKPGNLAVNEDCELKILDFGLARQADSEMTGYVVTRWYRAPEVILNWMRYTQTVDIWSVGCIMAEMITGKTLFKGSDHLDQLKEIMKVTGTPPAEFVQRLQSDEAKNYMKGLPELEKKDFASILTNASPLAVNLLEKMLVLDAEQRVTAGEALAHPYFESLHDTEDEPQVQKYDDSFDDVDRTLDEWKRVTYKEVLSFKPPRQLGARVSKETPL
Method: as §1

rat MNB = molecular target: T4, rat MNB (Rattus norvegicus, UniProt Q63470)
T4 construct: gene Dyrk1a
Method: as §1

PLK1preactivated = molecular target: T5, PLK1preactivated (Homo sapiens, UniProt P53350)
T5 construct: gene PLK1
T5 sequence (P53350 whole entry): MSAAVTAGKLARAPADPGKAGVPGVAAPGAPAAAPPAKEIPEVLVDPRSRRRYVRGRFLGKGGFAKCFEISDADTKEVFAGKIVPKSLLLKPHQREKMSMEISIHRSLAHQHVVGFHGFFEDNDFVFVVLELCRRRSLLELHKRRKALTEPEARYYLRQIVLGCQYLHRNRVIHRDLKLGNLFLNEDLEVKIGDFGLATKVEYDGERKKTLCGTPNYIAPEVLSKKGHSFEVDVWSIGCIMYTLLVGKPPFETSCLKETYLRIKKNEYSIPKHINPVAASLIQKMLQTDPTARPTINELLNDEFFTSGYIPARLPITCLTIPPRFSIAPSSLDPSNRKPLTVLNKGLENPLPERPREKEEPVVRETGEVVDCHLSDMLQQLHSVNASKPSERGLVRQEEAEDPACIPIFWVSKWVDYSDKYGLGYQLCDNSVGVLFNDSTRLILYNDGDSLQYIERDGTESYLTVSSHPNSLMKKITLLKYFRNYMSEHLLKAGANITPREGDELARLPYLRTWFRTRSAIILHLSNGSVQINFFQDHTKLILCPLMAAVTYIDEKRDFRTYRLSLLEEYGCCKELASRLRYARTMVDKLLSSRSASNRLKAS
Method: as §1

NEK2 = NEK2 (Homo sapiens, UniProt P51955)
Method: as §1

MST2 = molecular target: T6, MST2 (Homo sapiens, UniProt Q13188)
T6 construct: gene STK3
Method: as §1

rat ROCKII = molecular target: T7, rat ROCKII (Rattus norvegicus, UniProt Q62868)
T7 construct: gene Rock2
Method: as §1

SGK = molecular target: T8, SGK (Homo sapiens, UniProt O00141)
T8 construct: gene SGK1
Method: as §1

CKIIa = molecular target: T9, CKIIa (Homo sapiens, UniProt P68400)
T9 construct: gene CSNK2A1
Method: as §1

rat RSK1 = molecular target: T10, rat RSK1 (Rattus norvegicus, UniProt Q63531)
T10 construct: gene Rps6ka1
T10 sequence (Q63531 whole entry): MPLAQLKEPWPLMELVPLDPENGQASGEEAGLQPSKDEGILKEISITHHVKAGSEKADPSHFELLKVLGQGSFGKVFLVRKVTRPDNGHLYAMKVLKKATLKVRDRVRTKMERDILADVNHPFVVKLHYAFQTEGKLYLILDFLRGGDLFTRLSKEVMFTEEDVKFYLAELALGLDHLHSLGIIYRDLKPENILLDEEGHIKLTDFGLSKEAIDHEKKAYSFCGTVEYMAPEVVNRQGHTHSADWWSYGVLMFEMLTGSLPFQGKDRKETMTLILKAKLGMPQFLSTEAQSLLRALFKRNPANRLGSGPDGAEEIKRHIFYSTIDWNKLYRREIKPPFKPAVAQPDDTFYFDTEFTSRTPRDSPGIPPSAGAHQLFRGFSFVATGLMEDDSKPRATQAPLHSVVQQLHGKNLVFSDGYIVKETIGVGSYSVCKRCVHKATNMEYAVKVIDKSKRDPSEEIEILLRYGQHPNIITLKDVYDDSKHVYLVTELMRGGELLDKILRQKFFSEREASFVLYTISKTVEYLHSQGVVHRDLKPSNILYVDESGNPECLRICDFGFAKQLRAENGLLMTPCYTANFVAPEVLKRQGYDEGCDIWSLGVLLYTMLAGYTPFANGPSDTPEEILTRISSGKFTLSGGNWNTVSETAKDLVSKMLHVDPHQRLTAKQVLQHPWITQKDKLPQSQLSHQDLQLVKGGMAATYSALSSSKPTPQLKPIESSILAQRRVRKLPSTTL
Method: as §1

MSK1 = molecular target: T11, MSK1 (Homo sapiens, UniProt O75582)
T11 construct: gene RPS6KA5
Method: as §1

p38d = molecular target: T12, p38d (Homo sapiens, UniProt O15264)
T12 construct: gene MAPK13
T12 sequence (O15264 whole entry): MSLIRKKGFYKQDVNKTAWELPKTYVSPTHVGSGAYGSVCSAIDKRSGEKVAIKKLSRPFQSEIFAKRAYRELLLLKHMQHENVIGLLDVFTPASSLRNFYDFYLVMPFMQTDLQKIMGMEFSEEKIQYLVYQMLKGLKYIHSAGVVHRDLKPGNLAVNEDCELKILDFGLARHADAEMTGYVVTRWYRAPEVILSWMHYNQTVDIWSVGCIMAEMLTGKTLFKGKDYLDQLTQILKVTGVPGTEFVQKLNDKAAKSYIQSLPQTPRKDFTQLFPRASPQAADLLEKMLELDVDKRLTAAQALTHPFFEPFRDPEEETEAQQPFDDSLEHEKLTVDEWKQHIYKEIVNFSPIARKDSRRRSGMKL
Method: as §1

NEK6 = NEK6 (Homo sapiens, UniProt Q9HC98)
Method: as §1

MARK3 = MARK3 (Homo sapiens, UniProt P27448)
MARK3, sequence (P27448 whole entry): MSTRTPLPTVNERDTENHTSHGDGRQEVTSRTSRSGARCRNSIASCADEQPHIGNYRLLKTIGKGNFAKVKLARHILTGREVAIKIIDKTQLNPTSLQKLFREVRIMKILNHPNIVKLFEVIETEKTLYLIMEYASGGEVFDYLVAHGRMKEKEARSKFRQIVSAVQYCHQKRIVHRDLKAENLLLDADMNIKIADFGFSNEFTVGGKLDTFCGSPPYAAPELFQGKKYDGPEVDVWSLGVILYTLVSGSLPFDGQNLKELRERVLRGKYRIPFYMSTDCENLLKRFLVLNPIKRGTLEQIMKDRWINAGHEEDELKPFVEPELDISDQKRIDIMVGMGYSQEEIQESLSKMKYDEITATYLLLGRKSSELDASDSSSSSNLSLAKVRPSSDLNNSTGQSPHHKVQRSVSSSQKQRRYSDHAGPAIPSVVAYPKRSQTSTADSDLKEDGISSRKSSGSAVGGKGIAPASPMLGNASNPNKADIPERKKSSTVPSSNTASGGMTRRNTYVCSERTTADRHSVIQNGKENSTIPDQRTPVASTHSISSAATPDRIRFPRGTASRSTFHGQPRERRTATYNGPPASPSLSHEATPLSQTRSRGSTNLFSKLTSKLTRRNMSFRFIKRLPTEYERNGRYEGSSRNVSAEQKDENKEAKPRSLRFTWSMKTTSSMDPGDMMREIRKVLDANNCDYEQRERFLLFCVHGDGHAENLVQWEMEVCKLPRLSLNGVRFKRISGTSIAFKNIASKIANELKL
Method: as §1

PIM3 = PIM3 (Homo sapiens, UniProt Q86V86)
Method: as §1

PKCa = molecular target: T13, PKCa (Homo sapiens, UniProt P17252)
T13 construct: gene PRKCA
Method: as §1

PBK = PBK (Homo sapiens, UniProt Q96KB5)
PBK, sequence (Q96KB5 whole entry): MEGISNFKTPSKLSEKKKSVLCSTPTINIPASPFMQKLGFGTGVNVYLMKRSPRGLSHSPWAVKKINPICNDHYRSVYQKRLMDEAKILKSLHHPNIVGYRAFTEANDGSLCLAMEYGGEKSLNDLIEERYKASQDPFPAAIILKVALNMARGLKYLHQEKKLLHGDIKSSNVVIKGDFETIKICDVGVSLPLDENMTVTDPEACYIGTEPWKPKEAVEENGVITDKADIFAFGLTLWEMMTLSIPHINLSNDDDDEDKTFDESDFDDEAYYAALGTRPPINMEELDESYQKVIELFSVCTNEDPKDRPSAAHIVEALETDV
Method: as §1

inhibition at 1 µM (SRPK1): 5% | inhibition at 1 µM (CDK2): 38% | inhibition at 1 µM (CAMKKB): 16% | inhibition at 1 µM (PRK2): 16% | inhibition at 1 µM (p38g): 4% | inhibition at 1 µM (rat MNB): 4% | inhibition at 1 µM (PLK1preactivated): 64% | inhibition at 1 µM (NEK2): 73% | inhibition at 1 µM (MST2): 63% | inhibition at 1 µM (rat ROCKII): 25% | inhibition at 1 µM (SGK): 4% | inhibition at 1 µM (CKIIa): -2% | inhibition at 1 µM (rat RSK1): 29% | inhibition at 1 µM (MSK1): 14% | inhibition at 1 µM (p38d): 9% | inhibition at 1 µM (NEK6): 13% | inhibition at 1 µM (MARK3): 20% | inhibition at 1 µM (PIM3): 3% | inhibition at 1 µM (PKCa): 53% | inhibition at 1 µM (PBK): -2%
Compound: N#CCCNc1nccc(-c2cn(CC(F)F)nc2-c2cnc3[nH]ccc3c2)n1 [RAFi, PF-04880594]
